{
  "source": "patent US8822691B2",
  "about": "“Pesticidal carboxamides” (Bayer CropScience AG, priority 2009, dated 2014)",
  "format_in_all_cases": "in vivo",
  "key": {"Spodoptera litura": {"test_system": "Spodoptera litura", "assay": "Test against tobacco cutworm (Spodoptera litura) larvae, leaf dip", "details": "active compound concentration of 100 ppm, third instar larvae on sweet potato leaves, after 7 days; for pest or weed control at 100 ppm: foliar, 168 h, read-out: insecticidal activity"}, "Tetranychus urticae": {"test_system": "Tetranychus urticae", "assay": "Test against two-spotted spider mite (Tetranychus urticae), spray", "details": "active compound concentration of 500 ppm, adult mites on kidney bean, after 7 days; for pest or weed control at 500 ppm: Tetranychus urticae, 168 h, read-out: acaricidal activity", "experimental": "Unless not mentioned otherwise, the test solutions were prepared as follows:\nContaining as solvent: Dimethylformamide, 3 parts by weight; and as emulsifier: Polyoxyethylene alkyl phenyl ether, 1 part by weight\nTo prepare the test solution, 1 part by weight of an active compound is mixed with the above-mentioned amount of solvent containing the above-mentioned amount of emulsifier, and the mixture is diluted with water to the desired concentration.\n50 to 100 adult mites of Tetranychus urticae were inoculated to leaves of kidney bean at two-leaf stage planted in a pot of 6 cm in diameter. After one day, test solution at the appropriate concentration was sprayed thereon in a sufficient amount using a spray gun. After the spraying, the plant pot was placed inside a greenhouse, and after 7 days, the acaricidal activity was calculated. An acaricidal activity of 100% means that all mites were killed, whereas an acaricidal activity of 0% means that no mite was killed."}, "Aulacophora femoralis": {"test_system": "Aulacophora femoralis", "assay": "Test against cucurbit leaf beetle (Aulacophora femoralis), leaf dip", "details": "active compound concentration of 500 ppm, second instar larvae on cucumber leaves, after 7 days; for pest or weed control at 500 ppm: Aulacophora, foliar, 168 h, read-out: insecticidal activity", "outline": "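Cucumber leaves dipped in compound solution (DMF/polyoxyethylene alkyl phenyl ether formulation diluted in water), air-dried and given five second-instar larvae on sterilized soil at 25 °C. Dead larvae counted after 7 days and expressed as % insecticidal activity.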"}, "Lucilia cuprina": {"test_system": "Lucilia cuprina", "assay": "Lucilia cuprina (48 h) larval test", "details": "Lucilia cuprina, 48 h, read-out: activity (larval mortality)", "experimental": "Species: Lucilia cuprina 1st instar larvae (age 24 hrs)\n(§1) Solvent: dimethyl sulfoxide\n10 mg active compound are dissolve in 0.5 ml dimethyl sulfoxide. Serial dilutions are made to obtain the desired rates. Approximately 20 Lucilia cuprina 1st instar larvae are transferred into a test tube containing 1 cm^3 of minced horse meat and 0.5 ml aqueous dilution of test compound. After 48 hrs percentage of larval mortality are recorded. 100% efficacy all larvae are killed, % efficacy normally developed larvae after 48 hrs."}, "Ctenocephalides felis": {"test_system": "Ctenocephalides felis", "assay": "Ctenocephalides felis-test (CTECFE)", "details": "Ctenocephalides felis, in Bos taurus, 48 h, read-out: activity (mortality), application rate of 100 ppm in cattle blood; adult unfed fleas; after 2 days", "experimental": "as §1\nTo produce a suitable preparation of active compound, 10 mg of active compound are dissolved in 0.5 ml solvent, and the concentrate is diluted with cattle blood to the desired concentration. Approximately 20 adult unfed (Ctenocepahlides felis) are placed in flea chambers. The blood chamber, sealed with parafilm on the bottom, are filled with cattle blood supplied with compound solution and placed on top of the flea chamber, so that the fleas are able to suck the blood. The blood chamber is heated to 37° C. whereas the flea chamber is kept at room temperature. After 2 days mortality in % is determined. 100% means that all the fleas have been killed; 0% means that none of the fleas have been killed."}, "Boophilus microplus [1]": {"test_system": "Boophilus microplus", "assay": "Boophilus microplus-test (injection)", "details": "Rhipicephalus microplus, 168 h, read-out: activity (mortality in %; 100% means that all eggs are infertile)", "experimental": "as §1\nTo produce a suitable preparation of active compound, 10 mg of active compound are dissolved in 0.5 ml solvent, and the concentrate is diluted with solvent to the desired concentration. Five adult engorged female ticks (Boophilus microplus) are injected with 1 μl compound solution into the abdomen. Ticks are transferred into replica plates and incubated in a climate chamber for a period of time. Egg deposition of fertile eggs is monitored.\nAfter 7 days mortality in % is determined. 100% means that all eggs are infertile; 0% means that all eggs are fertile."}, "Boophilus microplus [2]": {"test_system": "Boophilus microplus", "assay": "Boophilus microplus (dip)", "details": "for mortality at 100 ppm: Rhipicephalus microplus, 168 h, read-out: activity (mortality)", "experimental": "Solvent: Dimethylsulfoxid\nTo produce a suitable preparation of active compound, 10 mg of active compound are dissolved in 0.5 ml solvent, and the concentrate is diluted with water to the desired concentration. Eight to ten adult engorged female Boophilus microplus ticks are placed in perforated plastic beakers and immersed in aqueous compound solution for one minute. Ticks are transferred to a filter paper in a plastic tray. Egg deposition of fertile eggs is monitored after. After 7 days mortality in % is determined. 100% means that all the ticks have been killed; 0% means that none of the ticks have been killed."}, "Musca domestica": {"test_system": "Musca domestica", "assay": "Musca domestica-test", "details": "Musca domestica, 48 h, read-out: activity (mortality)", "experimental": "as §1\nTo produce a suitable preparation of active compound, 10 mg of active compound are dissolved in 0.5 ml solvent, and the concentrate is diluted with water to the desired concentration. Prior to the assay, a piece of kitchen sponge is soaked with a mixture of sugar and compound solution and placed into a container. 10 adults (Musca domestica) are placed into the container and closed with a perforated lid. After 2 days mortality in % is determined. 100% means that all the flies have been killed; 0% means that none of the flies have been killed."}},
  "data": [
    {"compound": "N#Cc1ccc2cc(C(=O)Nc3c(I)cc(C(F)(C(F)(F)F)C(F)(F)C(F)(F)F)cc3OC(F)F)ccc2n1", "note": "(stereo not shown) [Compound No. 2-176, 2-cyano-N-[2-(difluoromethoxy)-6-iodo-4-(1,1,1,2,3,3,4,4,4-nonafluorobutan-2-yl)phenyl]quinoline-6-carboxamide]", "values": [
      {"measurement": "pest or weed control at 100 ppm", "setting": "Spodoptera litura", "result": 100, "unit": "%"},
      {"measurement": "pest or weed control at 500 ppm", "setting": "Tetranychus urticae", "result": 100, "unit": "%"},
      {"measurement": "pest or weed control at 500 ppm", "setting": "Aulacophora femoralis", "result": 100, "unit": "%"},
      {"measurement": "mortality at 100 ppm", "setting": "Lucilia cuprina", "result": 100, "unit": "%"},
      {"measurement": "mortality at 100 ppm", "setting": "Ctenocephalides felis", "result": 90, "unit": "%"},
      {"measurement": "mortality at 0.02 mg", "setting": "Boophilus microplus [1]", "result": 100, "unit": "%"},
      {"measurement": "mortality at 100 ppm", "setting": "Boophilus microplus [2]", "result": 100, "unit": "%"},
      {"measurement": "mortality at 100 ppm", "setting": "Musca domestica", "result": 100, "unit": "%"}
    ]},
    {"compound": "N#Cc1ccc2cc(C(=O)Nc3c(Br)cc(C(F)(C(F)(F)F)C(F)(F)Br)cc3OC(F)F)ccc2n1", "note": "(stereo not shown) [Compound No. 2-203, N-[2-bromo-4-(1-bromo-1,1,2,3,3,3-hexafluoropropan-2-yl)-6-(difluoromethoxy)phenyl]-2-cyanoquinoline-6-carboxamide]", "values": [
      {"measurement": "pest or weed control at 100 ppm", "setting": "Spodoptera litura", "result": 100, "unit": "%"},
      {"measurement": "pest or weed control at 500 ppm", "setting": "Tetranychus urticae", "result": 100, "unit": "%"},
      {"measurement": "pest or weed control at 500 ppm", "setting": "Aulacophora femoralis", "result": 100, "unit": "%"},
      {"measurement": "mortality at 100 ppm", "setting": "Lucilia cuprina", "result": 100, "unit": "%"},
      {"measurement": "mortality at 100 ppm", "setting": "Ctenocephalides felis", "result": 100, "unit": "%"},
      {"measurement": "mortality at 0.02 mg", "setting": "Boophilus microplus [1]", "result": 100, "unit": "%"},
      {"measurement": "mortality at 100 ppm", "setting": "Boophilus microplus [2]", "result": 100, "unit": "%"},
      {"measurement": "mortality at 100 ppm", "setting": "Musca domestica", "result": 100, "unit": "%"}
    ]},
    {"compound": "N#Cc1ccc2cc(C(=O)Nc3c(Br)cc(C(F)(C(F)(F)F)C(F)(F)C(F)(F)F)cc3OC(F)F)ccc2n1", "note": "(stereo not shown) [Compound No. 2-173, N-[2-bromo-6-(difluoromethoxy)-4-(1,1,1,2,3,3,4,4,4-nonafluorobutan-2-yl)phenyl]-2-cyanoquinoline-6-carboxamide]", "values": [
      {"measurement": "pest or weed control at 100 ppm", "setting": "Spodoptera litura", "result": 100, "unit": "%"},
      {"measurement": "pest or weed control at 500 ppm", "setting": "Tetranychus urticae", "result": 100, "unit": "%"},
      {"measurement": "pest or weed control at 500 ppm", "setting": "Aulacophora femoralis", "result": 100, "unit": "%"},
      {"measurement": "mortality at 100 ppm", "setting": "Boophilus microplus [2]", "result": 100, "unit": "%"}
    ]},
    {"compound": "N#Cc1ccc2cc(C(=O)Nc3c(Br)cc(C(F)(C(F)(F)F)C(F)(F)F)cc3OC(F)F)ccc2n1", "note": "[Compound No. 2-154, N-[2-bromo-6-(difluoromethoxy)-4-(1,1,1,2,3,3,3-heptafluoropropan-2-yl)phenyl]-2-cyanoquinoline-6-carboxamide]", "values": [
      {"measurement": "pest or weed control at 100 ppm", "setting": "Spodoptera litura", "result": 100, "unit": "%"},
      {"measurement": "pest or weed control at 500 ppm", "setting": "Tetranychus urticae", "result": 100, "unit": "%"},
      {"measurement": "pest or weed control at 500 ppm", "setting": "Aulacophora femoralis", "result": 100, "unit": "%"},
      {"measurement": "mortality at 100 ppm", "setting": "Boophilus microplus [2]", "result": 90, "unit": "%"}
    ]},
    {"compound": "N#Cc1ccc2cc(C(=O)Nc3c(I)cc(C(F)(C(F)(F)F)C(F)(F)F)cc3I)ccc2n1", "note": "[2-69]", "values": [
      {"measurement": "insecticidal activity", "setting": "Spodoptera litura", "result": 100, "unit": "%"},
      {"measurement": "acaricidal activity", "setting": "Tetranychus urticae", "result": 100, "unit": "%"},
      {"measurement": "insecticidal activity", "setting": "Aulacophora femoralis", "result": 100, "unit": "%"},
      {"measurement": "activity (mortality)", "setting": "Boophilus microplus [2]; application rate of 100 ppm, dip of adult engorged female ticks for one minute, after 7 days", "result": 100, "unit": "%"}
    ]}
  ]
}
